Experimental findings from patent US6693105B1, “Hydroxyl-containing compounds” (Cell Therapeutics, Inc., priority 1992, dated 2004) are described below.

Each structure is given as a SMILES string.

Series [1] concerns PBMC (peripheral blood mononuclear cells). The series is described as follows: two-way mixed lymphocyte reaction (MLR), proliferative response of PBMC to allogeneic stimulation. The class given is cell-based, human. The conditions noted are these: for IC50: Homo sapiens, PBMC, mixed lymphocyte reaction; for immune modulating activity compared with PTX: two-way MLR, FIG. 1. The source says:
Various in vitro assays can be used to measure effects of the inventive compounds to module immune activity and have antitumor activity using a variety of cellular types. For example, a mixed lymphocyte reaction (MLR) provides a valuable screening tool to determine biological activity of each inventive compound. In the MLR, PBMCs (peripheral blood mononuclear cells) are obtained by drawing whole blood from healthy volunteers in a heparinized container and diluted with an equal volume of hanks balanced salt solution (HBSS). This mixture is layered on a sucrose density gradient, such as a Ficoll-Hypaque® gradient (specific gravity 1.08), and centrifuged at 1000×g for 25 minutes at room temperature or cooler. PBMC are obtained from a band at a plasma-Ficoll interface, separated and washed at least twice in a saline solution, such as HBSS. Contaminating red cells are lysed, such as by ACK lysis for 10 min at 37° C., and the PBMCs are washed twice in HBSS. The pellet of purified PBMCs is resuspended in complete medium, such as RPMI 1640 plus 20% human inactivated serum. Proliferative response of PBMC to allogeneic stimulation is determined in a two-way MLR performed in a 96-well microtiter plate. Briefly, approximately 10^5 test purified PBMC cells in […] complete medium are co-cultured with approximately 10^5 autologous (control culture) or allogeneic (stimulated culture) PBMC cells, wherein the allogeneic cells are from HLA disparate individuals. Varying doses of compounds (drug) are added at the time of addition of cells to the microtiter plate. The cultures are incubated for 6 days at 37° C. in a 5% CO2 atmosphere. At the conclusion of the incubation tritiated thymidine is added (for example, 1 µCi/well of 40 to 60 Ci/mmole) and proliferation determined by liquid scintillation counting.
This example illustrates the effect of compounds nos. 1551 and 1559 as an immune modulator. […] 1551 and 1559 (see above for chemical names and structures).

The subject of a further series is VCAM. Kind of series: TNF-induced cell surface expression of VCAM in HUVEC, flow cytometry. Format: cell-based, human. As to conditions: for % of cells in gate (VCAM expression): 20 ng/ml TNF for 20 hours, 1559 at 0.25 mM one hour prior to TNF, TNF alone 34.5%, non-induced 0.4%. The method, then:
This example illustrates the effect of compound no. 1559 on inhibiting cell surface expression of VCAM in human umbilical vein endothelial cells (HUVEC). The HUVEC cells were stimulated with 20 ng/ml TNF- for 20 hours and then stained for immunofluorescence using a monoclonal antibody recognizing VCAM, followed by a goat anti-mouse antibody conjugated to phycoerythrin. The cells were analyzed for antibody binding using flow cytometry. […] The top left histogram is non-TNF induced expression of VCAM (% of cells in gate A is 0.4%). […] 1559 (0.25 mM), one hour prior to TNF addition (% of cells in gate C is 24%).
This example illustrates the effect of compound no. 1559 on inhibiting cell surface expression of VCAM in HUVEC cells. The cells were stimulated with TNF- (20 ng/ml) for 20 hours and then stained for immunofluorescence using a monoclonal antibody recognizing VCAM, followed by a goat anti-mouse antibody conjugated to phycoerythrin. The cells were analyzed for antibody binding using flow cytometry. […] The mean fluorescence levels were decreased by compound no. 1559 treatment (1.7 fold decrease) when compared with control levels (TNF treatment, no drug).
On the technique in general: Flow cytometry measures light scatter and fluorescence of single cells or particles in a stream.

The subject of the next series is murine thymocytes. Kind of series: murine thymocyte proliferation co-stimulated by ConA and IL-2. As to conditions: Mus musculus, ConA 0.25 mg/ml and IL-2 15 U/ml, drug added two hours before, 4 days. Format: cell-based, Balb/C mice. The source says:
This example illustrates dose response curves used to generate 50% inhibition concentration (IC50) of inventive compounds nos. 1551 and 1564 for murine thymocyte proliferation, co-stimulated by Concanavalin A (ConA) and interleukin-2 alpha (IL-2). ConA, used to activate CD3, along with IL-2 co-stimulation, induces T-cell proliferation and differentiation. Thymuses, obtained from normal, female Balb/C mice, were dissociated and plated into 96-well plates at a density of 2×10^5 cells/well. ConA (0.25 mg/ml) and IL-2 (15 U/ml) were added to the wells. The cells were incubated for 4 days at 37° C. On day 4, the cells were pulsed with tritiated thymidine and incubated for an additional 4 hours. The amount of tritiated thymidine dye incorporated by the harvested cells was determined in a liquid scintillation counter. Drug doses (shown in FIGS. 7A and 7B) were added two hours prior to ConA and IL-2 activation. Background counts were less than 200 cpm. […] 1551 and 1564 are 28 and 49 μM.

The subject of the next series is human stromal cells. The series is described as follows: PDGF-induced proliferation of human stromal cells. The class given is cell-based. The conditions noted are these: 50 ng/ml PDGF-BB, drug added one hour before, tritiated thymidine, FIG. 2. The method, then: (§1) Another assay for measuring activity of the inventive compounds involves determining PDGF, FGF or VEGF proliferative response using either mouse NIH-3T3 (Balb) cells or human-derived stromal cells. Human stromal cells are plated (e g., about 2000 cells per well) in defined media (e.g., 69% McCoy's, 12.5% fetal calf serum, 12.5% horse serum, 1% antibiotics, 1% glutamine, 1% vitamin supplement, 0.8% essential amino acids, 1% sodium pyruvate, 1% sodium bicarbonate, 0.4% non-essential amino acids and 0.36% hydrocortisone). Two to three days later, the stromal cells are starved in serum-free media. Twenty four hours later, the cells are treated with a stimulating agent, such as PDGF-AA, PDGF-BB or basic FGF (fibroblast growth factor) with or without IL-1 or TNF, and tritiated thymidine. Cell proliferation is determined by liquid scintillation counting.
This example illustrates a comparison of compounds nos. 1551 and 1559 on PDGF-induced (platelet derived growth factor) proliferation of human stromal cells. Human stromal cells were starved in serum-free media for 24 hours and then stimulated with 50 ng/ml of PDGF-BB. The drugs were added at various indicated concentrations one hour prior to PDGF stimulation. Tritiated thymidine was added at the time of PDGF stimulation. The cells were harvested and counted by liquid scintillation 24 hours after stimulation with PDGF. […]

The subject of another series is IL-12 signaling. The series is described as follows: IL-12 dependent in vitro T-helper cell (Th1) differentiation assay. Format: cell-based. The conditions noted are these: anti-CD3 stimulated splenic T cells, 5 U/ml IL-12, compound present during T cell activation. The method, then: This example illustrates the assay used to determine the effect of compounds of this invention in suppressing Th1 differentiation in vitro by blocking IL-12 signaling. Compounds are tested in an IL-12 dependent in vitro T-helper cell differentiation assay as described in LeGross et al., J. Exp. Med., 172:921-929 (1990). Recombinant IL-12 is used to induce Th1 differentiation. Splenic T cells are purified utilizing the antibodies RA3-3A1/6.1 (anti-B220), J11d and MAR8.5 (anti-rat kappa chain) to deplete the B cells via complement mediated toxicity following the procedure set forth in Klaus et al., J. Immunol., 149:1867-1875 (1992). Splenic T cells are stimulated at 5×10^5/ml with insoluble anti-CD3 alone (145-2C11, Pharmingen, San Diego, Calif.), or anti-CD3 and 5 U/ml IL-12, with and without each inventive compound. After seven days, equal numbers of viable cells are restimulated for 24 hours with anti-CD3 without the inventive compounds, and the supernatants are collected and assayed for IFN-γ production. IFN-γ and IL-4 levels are measured by Intertest kits from Genzyme specific for IFN-γ and IL-4.
Th1 differentiation is induced by culturing anti-CD3 stimulated T cells in the presence of exogenous IL-12. […] Neither the viability or recovery of T cells after one week of culture in the presence of the compound.

Series [2] has as its system LD-2 cells, a human malignant melanoma cell line. Kind of series: cytotoxicity on LD-2 cells (BCECF viability stain). The class given is cell-based. As to conditions: various concentrations, FIG. 3. The method, then: This example provide data from an experiment measuring compound no. 1559 cytotoxicity on LD-2 cells, a human malignant melanoma cell line. The cells were treated with various concentrations of compound no. 1559 and later stained for cell viability with a fluorescence stain (BCECF) and analyzed using a Milipore fluorescence plate reader.

The next series concerns NIH-3T3 cells. The series is described as follows: cytotoxicity on NIH-3T3 cells (BCECF viability stain). As to conditions: various concentrations, FIG. 4. The class given is cell-based, mouse. The method, then:
(§2) This example provides data from an experiment measuring compound no. 1559 cytotoxicity on NIH-3T3 cells and their Ras transformed counterpart, NIH-3T3 Ras cells. The cells were treated with various concentrations of compound no. 1559 and later stained for cell viability with a fluorescence stain (BCECF) and analyzed using a Milipore fluorescence plate reader.

The next series has as its system NIH-3T3 Ras cells. Kind of series: cytotoxicity on NIH-3T3 Ras cells (BCECF viability stain). Format: cell-based, mouse. As to conditions: various concentrations, FIG. 4. The method, then: as §2
In another series the test system is Balb/3T3 cells. Kind of series: PDGF-BB-induced proliferation of Balb/3T3 cells. Format: cell-based, mouse. The conditions noted are these: tritiated thymidine, FIGS. 8A and 9A. The method, then: as §1
Balb/3T3 cells respond vigorously to PDGF stimulation, and are useful in vitro models for further study of PDGF-induced proliferation. Disregulated PDGF-proliferative response has been linked to a variety of diseases, including, e.g., restenosis, atherosclerosis, fibrosis, and tumor cell angiogenesis. Cells were plated in low serum-containing medium for 24 hours prior to stimulation with various concentrations (as reported in FIGS. 8A and 9A) of inventive compounds nos.2556 and 3504 (FIGS. 8A and 9A, respectively). […]

Usually IC50 stands for the concentration that gives 50% inhibition. The low end stands for greater potency in that assay, the high end for weaker potency in that assay. In turn, `Cn1cnc2c1c(=O)n(CCCCCCCO)c(=O)n2C` [Compound 1545, 1-(7-Hydroxyheptyl)-3,7-dimethylxanthine] yielded an IC50 in series [1] of 300 µM.

As to `CC(=O)CCCCn1c(=O)c2c(ncn2C)n(C)c1=O` [PTX, 1-(5-oxohexyl)-3,7-dimethylxanthine, reference compound], in the series with VCAM, the “% of cells in gate (VCAM expression)” value is 36.8%.

In [1], `CC(O)CCCn1c(=O)c2c(ncn2C)n(C)c1=O` (centres unmarked) [Compound 1542, 1-(4-Hydroxypentyl)-3,7-dimethylxanthine] yielded a half-maximal inhibitory concentration (IC50) of more than 500 µM.

In turn, `Cn1cnc2c1c(=O)n(CC(O)CO)c(=O)n2C` (centres unmarked) [Compound 1540, 1-(2,3-Dihydroxypropyl)-3,7-dimethylxanthine] came in with an IC50 in series [1] of more than 500 µM.

Turning to `Cn1cnc2c1c(=O)n(CCCCCCC(O)CO)c(=O)n2C` (centres unmarked) [Compound 1538, 1-(7,8-Dihydroxyoctyl)-3,7-dimethylxanthine], the IC50 in [1] was more than 500 µM.

On to `Cn1cnc2c1c(=O)n(CCCCCCCCC(O)CO)c(=O)n2C` (centres unmarked) [Compound 1564, 1-(9,10-Dihydroxydecyl)-3,7-dimethylxanthine], for which the values for the half-inhibitory concentration (IC50) (in [1]; in the series with murine thymocytes) were 210 µM and 49 µM, respectively.

Compound `Cn1cnc2c1c(=O)n(CCCCCCCC(O)CO)c(=O)n2C` (centres unmarked) [Compound 1561, 1-(8,9-Dihydroxynonyl)-3,7-dimethylxanthine] gave a half-maximal inhibitory concentration (IC50) in series [1] of 185 µM.

As to `CC(O)CCCCCCCn1c(=O)c2c(ncn2C)n(C)c1=O` (centres unmarked) [Compound 1551, 1-(8-Hydroxynonyl)-3,7-dimethylxanthine], the IC50 in [1] amounted to 120 µM; with murine thymocytes, 28 µM. Further, in series [1], the “immune modulating activity compared with PTX” value is “more effective and more potent than PTX”. Further, the “inhibition of PDGF-induced stimulation (proliferation)” value in the series with human stromal cells is “inhibited PDGF-induced stimulation”.

In the case of `CC(O)CCCCCCn1c(=O)c2c(ncn2C)n(C)c1=O` (centres unmarked) [Compound 1536, 1-(7-Hydroxyoctyl)-3,7-dimethylxanthine], the IC50 in series [1] came to 250 µM. The “inhibition of Th1 differentiation enhanced by exogenous IL-12” value with IL-12 signaling is reported as “inhibited Th1 differentiation”.

Compound `Cn1cnc2c1c(=O)n(CCCCCCCCO)c(=O)n2C` [Compound 1546, 1-(8-Hydroxyoctyl)-3,7-dimethylxanthine] registered a concentration for half-maximal inhibition (IC50) in series [1] of 320 µM.

Turning to `Cn1cnc2c1c(=O)n(CCCCCCCCCCO)c(=O)n2C` [Compound 1559, 1-(10-Hydroxydecyl)-3,7-dimethylxanthine], half-maximal inhibition in series [1] (IC50) was put at 150 µM. Further, the “immune modulating activity compared with PTX” value in series [1] is “more effective and more potent than PTX”. In addition, in the series with human stromal cells, the “inhibition of PDGF-induced stimulation (proliferation)” value is “inhibited PDGF-induced stimulation”. Also, the cytotoxicity result (in [2]; in the series with NIH-3T3 cells; with NIH-3T3 Ras cells) was “cytotoxic at higher concentrations” in each case. Moreover, the “% of cells in gate (VCAM expression)” value in the series with VCAM came to 24%. For the same compound, the “decrease of mean fluorescence levels (VCAM) compared with control (TNF treatment, no drug)” value in the series on VCAM (TNF 20 ng/ml for 20 hours, FIG. 6) came to 1.7 fold decrease.

As for `CC(O)CCCCCCCCCCCCn1c(=O)c2c(ncn2C)n(C)c1=O` (centres unmarked) [Compound 3504, 1-(13-Hydroxytetradecyl)-3,7-dimethylxanthine], the “inhibition of PDGF-induced proliferation” value with Balb/3T3 cells is reported as “inhibited PDGF-induced proliferation”.

Turning to `Cn1cnc2c1c(=O)n(CCCCCCCCCCCC(O)CO)c(=O)n2C` (centres unmarked) [Compound 2556], the “inhibition of PDGF-induced proliferation” value in the series on Balb/3T3 cells is reported as “inhibited PDGF-induced proliferation”.

For the compound `Cn1cnc2c1c(=O)n(CCCCCCO)c(=O)n2C` [Compound 1556, 1-(6-Hydroxyhexyl)-3,7-dimethylxanthine], the IC50 in [1] is more than 500 µM.
